{"source": "patent US20190275032A1", "about": "(Boehringer Ingelheim International GmbH, priority 2016, published 2019)", "origin": "cited, not measured here", "key": {"[1]": {"system": "patients with IPF", "settings": "both INPULSIS trials, nintedanib 150 mg twice daily versus placebo"}, "[2]": {"system": "PDGFR-α and-β", "settings": "normal human lung fibroblasts in vitro"}, "[3]": {"system": "human lung fibroblasts"}, "[4]": {"system": "mouse models of IPF"}, "[5]": {"system": "patients with IPF"}}, "data": [{"smiles": "COC(=O)c1ccc2c(c1)NC(=O)/C2=C(\\Nc1ccc(N(C)C(=O)CN2CCN(C)CC2)cc1)c1ccccc1", "note": "[Nintedanib, 3-Z-[1-(4-(N-((4-methyl-piperazin-1-yl)-methylcarbonyl)-N-methyl-amino)-anilino)-1-phenyl-methylene]-6-methoxycarbonyl-2-indolinone]", "values": [{"measurement": "reduction of the annual rate of decline in FVC (mL/year)", "setting": "[1]", "value": "approximately 50%"}, {"measurement": "exposure in patients with hepatic impairment", "setting": "Child Pugh A, Child Pugh B", "value": "Exposure increased"}, {"measurement": "elimination via biliary/faecal excretion", "setting": "in vivo", "value": "> 90", "unit": "%"}, {"measurement": "PDGFR-α and -β activation", "setting": "[2]", "value": "inhibit"}, {"measurement": "PDGF- or FGF-2-stimulated migration of lung fibroblasts", "setting": "[3]; fibroblasts from patients with IPF", "value": "attenuated"}, {"measurement": "TGF-β-induced fibroblast to myofibroblast transformation", "setting": "[3]; primary human lung fibroblasts from IPF patients", "value": "inhibited"}, {"measurement": "total lung collagen", "setting": "[4]; IPF mouse models", "value": "significant reductions"}, {"measurement": "lymphocyte and neutrophil counts in the bronchoalveolar lavage fluid", "setting": "[4]; two different mouse models of IPF", "value": "significant reductions"}]}, {"smiles": "Cc1ccc(=O)n(-c2ccccc2)c1", "note": "[Pirfenidone, 5-methyl-1-phenyl-2(1H)-Pyridinone]", "values": [{"measurement": "primary endpoint of change from baseline FVC % predicted", "setting": "[5]; ASCEND Phase III trial", "value": "met the primary endpoint"}, {"measurement": "primary FVC lung function endpoint", "setting": "[5]; international Phase III CAPACITY program", "value": "demonstrated efficacy on the primary FVC lung function endpoint in only one of two confirmatory trials"}, {"measurement": "decline of vital capacity", "setting": "[5]; two local trials in Japan", "value": "reduced decline"}]}]}
